From the supplement of paper PMC10307832

Legend:
Assay in all cases: relative viability (nuclei count vs DMSO), 5 days (fraction); higher = more cells survive
[1] = compound: COc1cc(-c2nn([C@H]3CC[C@H](N4CCN(C(C)=O)CC4)CC3)c3ncnc(N)c23)ccc1NC(=O)c1cc2ccccc2n1C + Nc1ncn([C@H]2C[C@H](O)[C@@H](CO)O2)c(=O)n1 [Decitabine] (partner 2 µM)
Procedure, shortened: (§1)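 One day after seeding in 1536-well plates, lung cancer cell lines were dosed by pin tool. Dosing was either single-drug or a fixed anchor-drug dose plus five library-drug doses (not always all listed) in √10 steps. After 5 days, nuclei were stained in one fix-and-stain step and counted on 4× images, and relative viability is the nuclei count of treated wells over that of vehicle wells, given as the median of duplicate plates.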

[2] = compound: COc1cc(-c2nn([C@H]3CC[C@H](N4CCN(C(C)=O)CC4)CC3)c3ncnc(N)c23)ccc1NC(=O)c1cc2ccccc2n1C + CS(=O)(=O)CCNCc1ccc(-c2ccc3ncnc(Nc4ccc(OCc5cccc(F)c5)c(Cl)c4)c3c2)o1 [Lapatinib] (partner 2 µM)
Procedure, shortened: as §1

[3] = compound: CO[C@@H]1[C@H](N(C)C(=O)c2ccccc2)C[C@H]2O[C@]1(C)n1c3ccccc3c3c4c(c5c6ccccc6n2c5c31)C(=O)NC4 [Midostaurin] + CC(=O)c1c(C)c2cnc(Nc3ccc(N4CCNCC4)cn3)nc2n(C2CCCC2)c1=O [Palbociclib] (partner 0.5 µM)
Procedure, shortened: as §1

[4] = compound: COc1cc(-c2nn([C@H]3CC[C@H](N4CCN(C(C)=O)CC4)CC3)c3ncnc(N)c23)ccc1NC(=O)c1cc2ccccc2n1C + O=C(CCCCCCC(=O)Nc1ccccc1)NO [Vorinostat] (partner 1 µM)
Procedure, shortened: as §1

[5] = compound: COc1cc(-c2nn([C@H]3CC[C@H](N4CCN(C(C)=O)CC4)CC3)c3ncnc(N)c23)ccc1NC(=O)c1cc2ccccc2n1C + Cc1nc(NC(=O)N2CCC[C@H]2C(N)=O)sc1-c1ccnc(C(C)(C)C(F)(F)F)c1 [Alpelisib] (partner 2 µM)
Procedure, shortened: as §1

Row | Cell Line | relative viability ([1]; first compound 0.0128 µM) | relative viability ([1]; first compound 0.04048 µM) | relative viability ([1]; first compound 0.128 µM) | relative viability ([1]; first compound 1.28 µM) | relative viability ([2]; first compound 0.0128 µM) | relative viability ([2]; first compound 0.04048 µM) | relative viability ([2]; first compound 0.128 µM) | relative viability ([2]; first compound 1.28 µM) | relative viability ([3]; first compound 0.01 µM) | relative viability ([3]; first compound 0.03162 µM) | relative viability ([3]; first compound 0.1 µM) | relative viability ([3]; first compound 0.3162 µM) | relative viability ([4]; first compound 0.0128 µM) | relative viability ([4]; first compound 0.04048 µM) | relative viability ([4]; first compound 0.128 µM) | relative viability ([4]; first compound 1.28 µM) | relative viability ([5]; first compound 0.0128 µM) | relative viability ([5]; first compound 0.04048 µM) | relative viability ([5]; first compound 0.128 µM) | relative viability ([5]; first compound 1.28 µM)
1 | HARA | 0.609 | 0.699 | 0.612 | 0.381 | 0.888 | 0.858 | 0.563 | 0.813 | 0.316 | 0.283 | 0.278 | 0.242 | 0.698 | 0.372 | 0.421 | 0.325 | 0.855 | 0.886 | 0.735 | 0.447
2 | NCI-H838 | 0.484 | 0.505 | 0.518 | 0.432 | 1.06 | 1.02 | 0.913 | 0.629 | 0.237 | 0.229 | 0.251 | 0.185 | 0.783 | 0.763 | 0.742 | 0.685 | 1.03 | 1.01 | 1.01 | 0.664
3 | NCI-H1755 | 0.768 | 0.738 | 0.699 | 0.611 | 1.17 | 0.967 | 0.974 | 1.05 | 0.482 | 0.433 | 0.429 | 0.383 | 1 | 0.945 | 0.721 | 0.951 | 1.04 | 0.992 | 0.884 | 0.656
4 | HCC-78 | 0.674 | 0.689 | 0.701 | 0.539 | 0.953 | 0.85 | 0.673 | 0.585 | 0.536 | 0.474 | 0.474 | 0.469 | 0.462 | 0.547 | 0.422 | 0.298 | 0.376 | 0.361 | 0.322 | 0.281
5 | IA-LM | – | – | – | – | 0.83 | 1.16 | 0.79 | 1.15 | – | – | – | – | 1.07 | 0.877 | 0.79 | 0.912 | 0.838 | 0.803 | 0.783 | 0.84
6 | NCI-H322M | 0.659 | 0.682 | 0.648 | 0.63 | 0.627 | 0.679 | 0.621 | 0.474 | 0.475 | 0.483 | 0.528 | 0.559 | 0.868 | 0.931 | 0.718 | 0.745 | 0.801 | 0.844 | 0.681 | 0.741
7 | NCI-H3122 | 0.44 | – | 0.447 | 0.318 | 1.04 | – | 0.99 | 0.841 | 0.156 | 0.241 | 0.197 | 0.229 | 1.49 | – | 0.889 | 0.861 | 0.753 | – | 0.772 | 0.537
8 | COR-L23 | 0.509 | 0.451 | 0.446 | 0.499 | 0.933 | 1.2 | 0.789 | 0.992 | 0.259 | 0.346 | 0.285 | 0.207 | 0.528 | 0.615 | 0.42 | 0.558 | 0.749 | 0.97 | 0.682 | 0.682
9 | NCI-H1792 | 0.566 | 0.504 | 0.532 | 0.598 | 0.83 | 0.773 | 0.883 | 0.755 | 0.593 | 0.709 | 0.635 | 0.634 | – | – | – | – | 0.78 | 0.593 | 0.719 | 0.55
10 | ChaGo-K-1 | 0.493 | 0.513 | 0.497 | 0.508 | – | – | – | – | 0.912 | 1 | 0.889 | 0.935 | 0.802 | 0.768 | 0.679 | 0.555 | – | – | – | –
11 | NCI-H2342 | 0.812 | 0.783 | 0.777 | 0.609 | – | – | – | – | 0.477 | 0.538 | 0.491 | 0.547 | 0.762 | 0.758 | 0.861 | 0.825 | – | – | – | –
12 | NCI-H1299 | – | – | – | – | 0.997 | 1.11 | 0.984 | 1.04 | – | – | – | – | – | – | – | – | 1.1 | 1.11 | 1.06 | 1.08
13 | NCI-H1650 | 0.49 | 0.497 | 0.341 | 0.515 | 0.782 | 0.846 | 0.69 | 0.6 | 0.297 | 0.409 | 0.343 | 0.522 | 0.575 | 0.829 | 0.663 | 0.578 | – | – | – | –
14 | SW 900 | 0.524 | 0.381 | 0.507 | 0.52 | – | – | – | – | 0.574 | 0.587 | 0.545 | 0.639 | 0.806 | 0.582 | 0.511 | 0.621 | – | – | – | –
15 | NCI-H596 | 1.33 | 1.18 | 0.89 | 0.716 | 0.933 | 1.2 | 0.933 | 0.842 | – | – | – | – | 0.779 | 0.703 | 0.629 | 0.611 | 0.523 | 0.511 | 0.516 | 0.271
16 | NCI-H1648 | 0.595 | 0.447 | 0.482 | 0.452 | – | – | – | – | 0.35 | – | – | 0.285 | 0.536 | 0.48 | 0.526 | 0.341 | – | – | – | –
17 | NCI-H522 | 0.665 | 0.7 | 0.738 | 0.717 | – | – | – | – | 1.01 | 0.876 | 0.967 | 1.32 | 0.898 | 0.946 | 0.823 | 0.79 | – | – | – | –
18 | A549 | 0.237 | 0.252 | 0.228 | 0.245 | 0.961 | 1.02 | 0.953 | 1.06 | – | – | – | – | – | – | – | – | 0.739 | 0.774 | 0.862 | 0.57
19 | NCI-H1563 | – | – | – | – | 1.01 | 0.961 | 0.822 | 0.681 | – | – | – | – | – | – | – | – | 0.876 | 0.918 | 0.998 | 0.865
20 | LCLC-103H | 0.832 | 0.725 | 0.691 | 0.759 | – | – | – | – | 0.449 | 0.484 | 0.512 | 0.542 | 0.63 | 0.768 | 0.802 | 0.819 | 1.02 | 0.938 | 0.88 | 0.775
21 | NCI-H441 | 0.246 | 0.286 | 0.321 | 0.24 | – | – | – | – | 0.265 | 0.219 | 0.234 | 0.189 | 0.968 | 0.958 | 0.847 | 0.849 | 0.762 | 0.985 | 0.556 | 0.576
